Experiments:
PC-3 and LNCaP cells = experiment: MTT cell viability in PC-3 and LNCaP cells under AMPK inhibition or knocking down; format: cell-based, human; settings: α1AMPK-selective siRNA
Procedure: Figure 5 AMPK activation by compound 8c in prostate cancer cells. (A) PC-3 and LNCaP cells were treated with vehicle, 25 µM compound 8c, 25 µM compound 8c + 5 μM Dorsomorphin (8c + D) or 5 μM Dorsomorphin (D), for 1 hour or 24 hours and levels of the phosphorylated AMPK (pAMPK), phosphorylated ACC (pACC), phosphorylated Raptor (pRaptor) forms and HIF1α were determined by Western blot. Upper panel, representative Western blot of three different experiments. β-tubulin (β-Tub) serves as a loading control. Lower panel, densitometric analyses of bands represented as the mean of the ratio pAMPK/AMPK or pACC/ACC. (B) Cell viability monitored by MTT assay in PC-3 and LNCaP cells treated with vehicle, 25 µM and 50 μM compound 8c alone or in the presence of 5 μM Dorsomorphin or transfected with control siRNA (siC) or α1AMPK-selective siRNA (siAMPK). (C) LNCaP cells were treated with vehicle, 25 µM compound 8c, 25 µM compound 8c + 5 μM Dorsomorphin (8c + D) or 5 μM Dorsomorphin (D), for 24 hours and levels of Androgen Receptor (AR), Prostate specific antigen (PSA) and Prostate specific membrane antigen (PSMA) were determined by Western blot.Values were normalized with the control and represent the mean ± SD of at least three independent experiments. *p < 0.05 and **p < 0.01 compared to control and ^#p < 0.05 and ^##p < 0.01 compared with 8c-treated group by the Student’s t-test. […]

PC-3 xenograft tumors = experiment: PC-3 xenograft tumor growth in nude mice; format: in vivo; settings: 5 mg/Kg daily, 15 days
Source text: To validate the therapeutic value of the compound 8c against castration-resistant prostate cancer a murine xenograft model was employed. Due to the potent effect of compound 8c on the aggressive PC-3 cell line and in order to avoid unnecessary wasting of animals according to the 3 Rs guidelines (reduction, replacement, refinement) for the use of animals in research, we only use PC-3 cells for the in vivo studies. PC-3 tumors were induced in nude mice by subcutaneous injection of cells in the right flank of the mouse. When tumors reached a 70 mm^3 volume, mice were daily treated with 5 mg/Kg of compound 8c. In vehicle-treated mice, an increase in tumor growth volume was observed during the course of the study and at the end of experimentation (Fig. 8A).
Figure 8 Inhibition of prostate tumor xenograft growth in vivo by compound 8c. […]
Male immunodeficient nude-Foxn1 (nu/nu) mice (Envigo RMS, Barcelona, Spain), 4 to 6 week old, were used for all xenograft studies. […] Tumors were measured with external calipers and volume was calculated by the modified ellipsoidal formula as volume = length × (width)^2 × 0.52 mm^3 [52],[53]. At the end of the study, the mice were sacrificed by placing them in a CO2 gas-filled chamber, and the excised tumors were recovered and homogenized in lysis buffer for protein quantification and Western blotting.

In the case of `O=C1Nc2ccccc2C1(F)Cc1ccc(-c2ccccc2)o1` (stereo not drawn) [Compound 8c, 3-fluoro-3-((5-phenylfuran-2-yl)methyl)indolin-2-one], the “cell death with AMPK silencing by specific siRNA” value (PC-3 and LNCaP cells) is reported as “prevented 8c-induced cell death”, the “AMPK activation, ACC phosphorylation, Cyclin D1 and procaspase-3 levels in xenograft tumors” value (PC-3 xenograft tumors; Western blot of tumors) is reported as “promoted AMPK activation, increased ACC phosphorylation, decreased Cyclin D1 and decreased procaspase-3 levels” and the xenograft tumor growth (PC-3 xenograft tumors; subcutaneously, nude mice, vs vehicle) is reported as “significantly reduced tumor growth”.

— PMC5847527, “Identification of a novel 2-oxindole fluorinated derivative as in vivo antitumor agent for prostate cancer acting via AMPK activation” (Scientific Reports, 2018)
